Drawing on US9193697B2, “Oxazole derivatives useful as modulators of FAAH” (MERCK SHARP & DOHME CORP., priority 2010, dated 2015), this text covers IC50 for 15 compounds.

For assay [1], the target named is T1, human FAAH (Fatty Acid Amide Hydrolase) (Homo sapiens (Human), UniProt O00519). The experiment in a line: FAAH inhibition, human FAAH CHO cell lysate (AAMCA fluorescence). Format: biochemical. An excerpt: To assist in assay development stable cell lines for human, murine and rat full length FAAH were developed. […] The full length FAAH was subcloned into the mammalian expression vector, pcDEF.neo, using XbaI and EcoRI restriction sites and used for stable cell line generation.
T1 sequence (O00519 whole entry): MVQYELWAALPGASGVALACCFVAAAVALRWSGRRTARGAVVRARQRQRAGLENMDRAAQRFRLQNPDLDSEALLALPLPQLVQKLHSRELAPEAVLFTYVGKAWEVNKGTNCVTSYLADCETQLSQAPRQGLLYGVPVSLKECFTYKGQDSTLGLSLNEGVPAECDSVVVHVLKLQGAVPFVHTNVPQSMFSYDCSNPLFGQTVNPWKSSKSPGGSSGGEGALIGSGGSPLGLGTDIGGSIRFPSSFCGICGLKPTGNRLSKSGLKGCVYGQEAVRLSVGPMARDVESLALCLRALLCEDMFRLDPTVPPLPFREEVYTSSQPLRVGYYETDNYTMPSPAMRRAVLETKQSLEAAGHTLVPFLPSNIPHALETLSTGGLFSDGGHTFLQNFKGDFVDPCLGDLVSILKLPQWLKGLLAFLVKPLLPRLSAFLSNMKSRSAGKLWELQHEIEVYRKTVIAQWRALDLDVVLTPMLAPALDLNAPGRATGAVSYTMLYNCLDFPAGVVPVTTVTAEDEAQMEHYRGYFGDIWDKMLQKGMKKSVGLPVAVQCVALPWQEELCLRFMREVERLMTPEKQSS
The full length murine FAAH was subcloned into the mammalian expression vector, pcDEFneo using either EcoRI (murine) or KpnI and EcoRI (rat) restriction sites. Chinese hamster ovary cells (CHO) were transfected following manufacturers protocol (AMAXA). Forty eight hours post transfection, cells were trypsinized and transferred to 96 well plates in Iscove's DMEM media supplemented with 2 mM Glutamine, 10% fetal calf serum, 1 mg/ml geneticin and HT Supplement (0.1 mM sodium hypoxanthine, 0.016 mM thymidine) in order to isolate single clones. […] Following removal of tissue culture media cells were dislodged following addition of Cellstripper (Mediatech, Inc. Manassas, Va.) and transferred to 96 well black clear bottom assay plate, centrifuged at 1,000 rpm for 3 mins and media removed and replaced with assay buffer (50 mM Tris pH8.0, 1 mM EDTA, 0.1% fatty acid free BSA). The reaction was initiated by addition of fluorescent substrate, AMC Arachidonoyl Amide (Cayman Chemical, Ann Arbor, Mich.) to 1 μM and reaction allowed to proceed for 2 hours at room temperature. Release of fluorescence was monitored in a CytoFluor Multiplate Reader.
CHO cells expressing FAAH were used to prepare either crude cell lysate or microsome fractions. To harvest cells, tissue culture media was decanted, the monolayer washed three times with Ca^++Mg^++ free PBS and cells recovered after 15 min in enzyme free dissociation media (Millipore Corp, Billerica, Mass.). Cells were collected by centrifuging at 2000 rpm for 15 min, and the cell pellet re-suspended with 50 mM HEPES (pH 7.4) containing 1 mM EDTA and the protease inhibitors aprotinin (1 mg/ml) and leupeptin (100 μM). The suspension was sonicated at 4° C. and the cell lysate recovered after centrifuging at 12,000×g (14,600 rpm, SS34 rotor) for 20 min at 4° C. to form a crude pellet of cell debris, nuclei, peroxisomes, lysosomes, and mitochondria; the supernatant or cell lysate was used for FAAH enzyme assay. In some eases, microsomes fractions enriched in FAAH were prepared by centrifuging the cell lysate further at 27,000 rpm (100,000×g) in SW28 rotor for 50 minutes at 4° C. The pellet containing FAAH-enriched microsomes was re-suspend in 50 mM HEPES, (pH 7.4) 1 mM EDTA, and any remaining DNA sheared by passage of material through a 23 gauge needle and aliquots of enzyme were store at −80° C. prior to use.
Assays are performed on either cell lysate or microsome fractions prepared as described or in whole cell format employing either the fluorescent substrate AAMCA (Cayman chemical, Ann Arbor, Mich.,) or ^3H-anandamide ([ETHANOLAMINE-1-3H] American Radiolabeled Chemicals; 1 mCi/ml). […] AAMCA substrate was used to achieve a final concentration of 1 μM and reaction allowed to proceed at room temperature for 1-3 hours. […] Whole cell assay is conducted with cells harvested after rinsing tissue culture flasks three times with Ca^++Mg^++ free PBS, incubating for 10 min in Enzyme free dissociation media and centrifuging for 5 minutes at 1,000 rpm in table top centrifuge. Cells are resuspended in assay buffer at desired cell number in (4×10^4 cells/assay in 96-well format; 1×10^4 cells/assay in 384-well format) and assayed as described.
Alternatively, assays are performed using anandamide [ethanolamine 1-^3H] (specific activity of 10 Ci/mmol) diluted with cold anandamide to achieve a final assay concentration of 1 μM anandamide (˜50,000 cpm). Enzyme (CHO cell lysate, brain or liver homogenate) is incubated in assay buffer (50 mM Phosphate, pH 8.0, 1 mM EDTA, 200 mM KCl, 0.2% glycerol, 0.1% fatty acid free BSA) with inhibitor at 25° C. for 30 minutes.

For assay [2], the target named is T1, human FAAH (Fatty Acid Amide Hydrolase). The experiment in a line: FAAH inhibition, human FAAH CHO whole cell format. The class given is cell-based.

pIC50: −log10 of the molar value.

The term pIC50 denotes −log10 of the IC50, conventionally taken in molar units. A high value points to a small IC50. On to `Clc1ccc(Sc2oc(C3CCOCC3)nc2-c2cnc3[nH]ccc3c2)cc1` [Example B5.4, 5-{5-[(4-chlorophenyl)sulfanyl]-2-(tetrahydro-2H-pyran-4-yl)-1,3-oxazol-4-yl}-1H-pyrrolo[2,3-b]pyridine], for which the values for the pIC50 in assay [1] and in assay [2] were 7.56 and 7.20, respectively.
The matching figures for `Clc1ccc(Sc2oc(C3CCOCC3)nc2-c2ccc3ncnn3c2)cc1` [Example B5.6, 6-{5-[(4-chlorophenyl)sulfanyl]-2-(tetrahydro-2H-pyran-4-yl)-1,3-oxazol-4-yl}[1,2,4]triazolo[1,5-a]pyridine]: 6.93 and 6.38.
The matching figures for `C[S+]([O-])c1ccc(-c2nc(C3=CCC(O)CC3)oc2Sc2ccc(Cl)cc2)cc1` (stereo not drawn) [Example C6.2, 4-{5-[(4-Chlorophenyl)sulfanyl]-4-[4-(methylsulfinyl)phenyl]-1,3-oxazol-2-yl}cyclohex-3-en-1-ol]: 8.06 and 7.33.
The matching figures for `Clc1ccc(Sc2oc(C3CCOCC3)nc2-c2cn[nH]c2)cc1` [Example B5.8, 5-[(4-chlorophenyl)sulfanyl]-4-(1H-pyrazol-4-yl)-2-(tetrahydro-2H-pyran-4-yl)-1,3-oxazole]: 6.84 and 6.13.
Regarding `CC(C)OC(=O)N1CCC(c2nc(-c3ccc([S+](C)[O-])cc3)c(Sc3ccc(Cl)cn3)o2)CC1` (stereo not drawn) [Example A7.22, propan-2-yl 4-{5-[(5-chloropyridin-2-yl)sulfanyl]-4-[4-(methylsulfinyl)phenyl]-1,3-oxazol-2-yl}piperidine-1-carboxylate], the pIC50 in assay [1] is 7.34; in assay [2] it was 6.42.
For `C[S+]([O-])c1ccc(-c2nc(C3CCN(C(=O)OCCN4CCOCC4)CC3)oc2Sc2ccc(Cl)cn2)cc1` (stereo not drawn) [Example A7.27, 2-(morpholin-4-yl)ethyl 4-{5-[(5-chloropyridin-2-yl)sulfanyl]-4-[4-(methylsulfinyl)phenyl]-1,3-oxazol-2-yl}piperidine-1-carboxylate], the negative logarithm of the IC50 (pIC50) in assay [1] is 6.32; in assay [2] it was 5.30.
The matching figures for `Clc1ccc(Sc2oc(C3CCOCC3)nc2-c2ccc3[nH]ncc3c2)cc1` [Example B5.2, 5-{5-[(4-chlorophenyl)sulfanyl]-2-(tetrahydro-2H-pyran-4-yl)-1,3-oxazol-4-yl}-1H-indazole]: 8.38 and 7.96.
The matching figures for `C[S+]([O-])c1ccc(-c2nc(C3CCN(S(C)(=O)=O)CC3)oc2Sc2ccc(Cl)cn2)cc1` (stereo not drawn) [Example A7.19, 5-chloro-2-({4-[4-(methylsulfinyl)phenyl]-2-[1-(methylsulfonyl)piperidin-4-yl]-1,3-oxazol-5-yl}sulfanyl)pyridine]: 6.54 and 5.48.
The matching figures for `Clc1ccc(Sc2oc(C3CCOCC3)nc2-c2cnn(CC3OCCO3)c2)cc1` [Example B5.5, 5-[(4-chlorophenyl)sulfanyl]-4-[1-(1,3-dioxolan-2-ylmethyl)-1H-pyrazol-4-yl]-2-(tetrahydro-2H-pyran-4-yl)-1,3-oxazole]: 6.59 and 5.98.
For `CC(C)(C)OC(=O)N1CCC(c2nc(-c3ccc(S(C)(=O)=O)cc3)c(Sc3ccc(Cl)cn3)o2)CC1` [Example A7.14, tert-butyl 4-{5-[(5-chloropyridin-2-yl)sulfanyl]-4-[4-(methylsulfonyl)phenyl]-1,3-oxazol-2-yl}piperidine-1-carboxylate], the values for the negative-log IC50 (pIC50) in assay [1] and in assay [2] were 7.18 and 6.35, respectively.
In the case of `C[S+]([O-])c1ccc(-c2nc(C3=CCOCC3)oc2Sc2ccc(Cl)cc2)cc1` (stereo not drawn) [Example C6.3, 5-[(4-chlorophenyl)sulfanyl]-2-(3,6-dihydro-2H-pyran-4-yl)-4-[4-(methylsulfinyl)phenyl]-1,3-oxazole], the pIC50 in assay [1] was 7.80; in assay [2], 7.51.
The matching figures for `COC(=O)Cn1cc(-c2nc(C3CCOCC3)oc2Sc2ccc(Cl)cc2)cn1` [Example B5.13, methyl (4-{5-[(4-chlorophenyl)sulfanyl]-2-(tetrahydro-2H-pyran-4-yl)-1,3-oxazol-4-yl}-1H-pyrazol-1-yl)acetate]: 6.49 and 6.07.
The matching figures for `C[S+]([O-])c1ccc(-c2nc(C3CCNCC3)oc2Sc2ccc(Cl)cn2)cc1` (stereo not drawn) [Example A7.15, 4-{5-[(5-Chloropyridin-2-yl)sulfanyl]-4-[4-(methylsulfinyl)phenyl]-1,3-oxazol-2-yl}piperidinium chloride]: 5.85 and at most 5.00.
For `C[S+]([O-])c1ccc(-c2nc(C3CCN(C(=O)OCCNCCO)CC3)oc2Sc2ccc(Cl)cn2)cc1` (stereo not drawn) [Example A7.30, 2-[(2-hydroxyethyl)amino]ethyl 4-{5-[(5-chloropyridin-2-yl)sulfanyl]-4-[4-(methylsulfinyl)phenyl]-1,3-oxazol-2-yl}piperidine-1-carboxylate], the figures for the pIC50 in assay [1] and in assay [2] were 5.67 and at most 5.00, respectively.
The matching figures for `CN(C)c1ncc(-c2nc(C3CCOCC3)oc2Sc2ccc(Cl)cc2)cn1` [Example B5.11, 5-{5-[(4-chlorophenyl)sulfanyl]-2-(tetrahydro-2H-pyran-4-yl)-1,3-oxazol-4-yl}-N,N-dimethylpyrimidin-2-amine]: 7.88 and 7.43.
